These results are taken from ChEMBL document CHEMBL1201862, “PubChem BioAssay data set” (2004).

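Five compound concentrations were applied to cells in 96-well plates for 48 hours; endpoints were derived by simple linear interpolation of the resulting dose-response curve. At the GI50, growth is halved.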 Activity calls are given as the source filed them. Rule as the data show it: active = GI50 up to about 1.1 µM and inactive = higher.

What all share (assay): NCI tumour cell line growth inhibition, 48 h
In experiment [1] the test system is A498.
Experiment [2] concerns BT-549.
Experiment [3] has as its system EKVX.
The subject of experiment [4] is HCT-116.
The subject of experiment [5] is HL-60.
For experiment [6], the system named is Hs-578T.
In experiment [7] the test system is MDA-MB-231.
In experiment [8] the test system is MDA-MB-435.
For experiment [9], the system named is MDA-N.
Experiment [10] deals with Malme-3M.
Experiment [11] deals with NCI-H226.
Experiment [12] concerns PC-3.
For experiment [13], the system named is SF-295.
Experiment [14] relates to SK-MEL-28.
Experiment [15] has as its system SK-MEL-5.
Experiment [16] concerns SK-OV-3.
For experiment [17], the system named is SN12C.
Experiment [18] relates to TK-10.

Turning to `CCCc1cc(COC)c(C#N)c(O)n1`, the GI50 in experiment [1], in experiment [2], in experiment [3], in [4], in experiment [5] and in experiment [6] was > 100 µM (inactive) throughout. The GI50 is > 100 µM (inactive) in experiment [7]; > 100 µM (inactive) in experiment [8]; > 100 µM (inactive) in experiment [9]; > 100 µM (inactive) in experiment [10]; 17.5 µM (inactive) in experiment [11]; > 100 µM (inactive) in [12]. For the same compound, the GI50 in experiment [13], in [14], in experiment [15], in [16], in experiment [17] and in experiment [18] was > 100 µM (inactive) throughout.

For the compound `CCOC(=O)Cn1c(C(F)(F)F)nc2nc(Cl)c(Cl)nc21`, the GI50 in experiment [1] was 25.5 µM (inactive); in experiment [2], 54.8 µM (inactive); in experiment [3] it was 10.5 µM (inactive); in experiment [4] it was 38.9 µM (inactive); in experiment [5], 19.7 µM (inactive); in [6], 25 µM (inactive). Further, the GI50 in experiment [7] is 58.9 µM (inactive); in [8], 32.5 µM (inactive); in experiment [9], 37.2 µM (inactive); in [10] it was 38.4 µM (inactive); in experiment [11] it was 50 µM (inactive); in [12] it was 32.2 µM (inactive). The GI50 was 29 µM (inactive) in [13]; 48.9 µM (inactive) in experiment [14]; 27.3 µM (inactive) in experiment [15]; 49.1 µM (inactive) in experiment [16]; 49.4 µM (inactive) in experiment [17]; 61.4 µM (inactive) in experiment [18].

`CCOC(=O)CCC(NC(=O)c1ccc(Nc2nc3ccccc3nc2C(=O)OCC)cc1)C(=O)OCC` (stereo not drawn): the GI50 in experiment [1] is 6.79 µM (inactive); in experiment [2], 7.66 µM (inactive); in experiment [3], 7.38 µM (inactive); in [4], 2.95 µM (inactive); in [5] it was > 100 µM (inactive); in experiment [6], 3.1 µM (inactive). In addition, the GI50 is 9.62 µM (inactive) in experiment [7]; 3.91 µM (inactive) in experiment [8]; 3.89 µM (inactive) in experiment [9]; 6.67 µM (inactive) in experiment [10]; 3.24 µM (inactive) in [11]; 16.9 µM (inactive) in experiment [12]. In addition, the GI50 in experiment [13] is 7.71 µM (inactive); in experiment [14], 8.91 µM (inactive); in experiment [15], 27.8 µM (inactive); in experiment [16] it was 2.47 µM (inactive); in [17], 15.7 µM (inactive); in experiment [18], 2.92 µM (inactive).

Turning to `CSC1(SC)CCCCCCCCCCC1`, the GI50 in experiment [1] was > 100 µM (inactive); in experiment [2], 60.3 µM (inactive); in [3] it was 39 µM (inactive); in [4], 17 µM (inactive); in [5], 46.3 µM (inactive); in [6] it was 43.1 µM (inactive). Besides, the GI50 in experiment [7] was 41.4 µM (inactive); in [8], 38.9 µM (inactive); in experiment [9], 42.8 µM (inactive); in experiment [10], 25.5 µM (inactive); in experiment [11], > 100 µM (inactive); in experiment [12], 40.9 µM (inactive). The GI50 in [13] was 37.3 µM (inactive); in [14], 44.9 µM (inactive); in [15], 35.2 µM (inactive); in experiment [16] it was 83.9 µM (inactive); in experiment [17] it was 70 µM (inactive); in experiment [18] it was 90.2 µM (inactive).

Turning to `CCOC(=O)N1CC2(C)C=CC1C(C(=O)OC)C2` (stereo not drawn), the GI50 in experiment [1], in experiment [2], in experiment [3], in experiment [4], in experiment [5] and in [6] was > 100 µM (inactive) throughout. Moreover, the GI50 is > 100 µM (inactive) in experiment [7]; > 100 µM (inactive) in experiment [8]; > 100 µM (inactive) in experiment [9]; > 100 µM (inactive) in [10]; 69.8 µM (inactive) in experiment [11]; > 100 µM (inactive) in experiment [12]. Also, the GI50 in experiment [13], in [14], in experiment [15], in [16], in [17] and in experiment [18] was > 100 µM (inactive) each time.

With `C/C(=N/c1[nH]c(=O)cc2c1C(=O)CC2)N(C)C`, the GI50 in [1], in [2], in experiment [3], in experiment [4], in experiment [5] and in experiment [6] was > 200 µM (inactive) throughout. In addition, the GI50 in [7], in [8], in experiment [9], in [10], in experiment [11] and in experiment [12] was > 200 µM (inactive) each time. Besides, the GI50 in experiment [13], in experiment [14], in experiment [15], in experiment [16], in experiment [17] and in [18] was > 200 µM (inactive) each time.

Turning to `COc1ccc(CCNC2=CC(=O)c3ncccc3C2=O)cc1OC`, the GI50 in experiment [1] was 1.82 µM (inactive); in [2] it was 1.3 µM (inactive); in experiment [3], 5.5 µM (inactive); in experiment [4], 2.51 µM (inactive); in experiment [5], 2.82 µM (inactive); in experiment [6] it was 1.19 µM (inactive). The GI50 is 0.789 µM (active) in experiment [7]; 0.471 µM (active) in [8]; 1.18 µM (inactive) in experiment [9]; 0.682 µM (active) in experiment [10]; 1.42 µM (inactive) in experiment [11]; 2.54 µM (inactive) in [12]. The GI50 is 0.794 µM (active) in experiment [13]; 1.47 µM (inactive) in experiment [14]; 0.184 µM (active) in [15]; 10.2 µM (inactive) in experiment [16]; 0.973 µM (active) in experiment [17]; 24.3 µM (inactive) in experiment [18].

With `COc1ccc2c3c1O[C@H]1C(=O)C=CC4(n5[nH]c(=O)n(-c6ccccc6)c5=O)C(C2)N(C)CCC314` (stereo partly drawn), the GI50 in experiment [1], in [2], in experiment [3], in experiment [4], in experiment [5] and in [6] was > 100 µM (inactive) each time. The GI50 in experiment [7], in experiment [8], in [9], in experiment [10], in experiment [11] and in experiment [12] was > 100 µM (inactive) in each case. The GI50 in experiment [13], in [14], in experiment [15], in [16], in experiment [17] and in experiment [18] was > 100 µM (inactive) throughout.

Take `CCOC(=O)c1cccc(/N=N/c2ncc(/C=C/C(=O)OC)[nH]2)c1`: the GI50 in experiment [1] was 20.8 µM (inactive); in experiment [2] it was 34.8 µM (inactive); in experiment [3] it was 27.7 µM (inactive); in experiment [4] it was 18.2 µM (inactive); in experiment [5], 5.97 µM (inactive); in experiment [6], 39.9 µM (inactive). The GI50 in experiment [7] is 36.7 µM (inactive); in experiment [8], 28 µM (inactive); in experiment [9], 15.7 µM (inactive); in experiment [10] it was 22.6 µM (inactive); in experiment [11], 36.1 µM (inactive); in experiment [12], 24.3 µM (inactive). Also, the GI50 in experiment [13] was 20.4 µM (inactive); in [14], 27 µM (inactive); in [15], 10.8 µM (inactive); in experiment [16] it was 55.7 µM (inactive); in experiment [17] it was 7.03 µM (inactive); in [18] it was 26.5 µM (inactive).

In the case of `COc1nc2c(c(=O)n1C)N(C(C)=O)C1C(N2)OCC(OC(C)=O)C1OC(C)=O` (stereo not drawn), the GI50 in experiment [1], in experiment [2], in [3], in experiment [4], in [5] and in experiment [6] was > 10 µM (inactive) in each case. For the same compound, the GI50 in experiment [7], in experiment [8], in [9], in [10], in experiment [11] and in [12] was > 10 µM (inactive) each time. The GI50 in [13], in [14], in experiment [15], in experiment [16], in experiment [17] and in experiment [18] was > 10 µM (inactive) each time.

`C[C@@H]1C[C@@H]2OC(=O)[C@]3(C)[C@H]2[C@@H](OC3(C)O)[C@]2(C)C(=O)C=C[C@@H]12` (stereo partly drawn) [TENULIN]: the GI50 in experiment [1] was 22.6 µM (inactive); in [2], 10.1 µM (inactive); in experiment [3], 20.2 µM (inactive); in experiment [4], 16.6 µM (inactive); in experiment [5], 3.48 µM (inactive); in experiment [6] it was 51.6 µM (inactive). For the same compound, the GI50 in experiment [7] is 25 µM (inactive); in experiment [8], 24.2 µM (inactive); in experiment [9], 17.5 µM (inactive); in experiment [10] it was 13.6 µM (inactive); in experiment [11], 74 µM (inactive); in [12], 87.9 µM (inactive). The GI50 is > 100 µM (inactive) in [13]; 18.3 µM (inactive) in experiment [14]; 20.2 µM (inactive) in [15]; > 100 µM (inactive) in experiment [16]; 18.3 µM (inactive) in experiment [17]; 18 µM (inactive) in experiment [18].
